# Test results from ChEMBL document CHEMBL3603774, “Novel 5-functionalized-pyrazoles: Synthesis, characterization and pharmacological screening” (Bioorg Med Chem Lett, 2015).
# Key:
# Staphylococcus aureus [1] = assay: Antibacterial activity against Staphylococcus aureus MTCC 96 assessed as concentration required to completely destroy test microorganisms after 24 hrs; assay type: functional; settings: MTCC 96, 24 h
# Klebsiella pneumoniae [2] = assay: Antibacterial activity against Klebsiella pneumoniae MTCC 3384 after 24 hrs by microdilution method; assay type: functional; settings: MTCC 3384, 24 h
# Aspergillus niger [3] = assay: Antifungal activity against Aspergillus niger MTCC 281 assessed as concentration required to completely destroy test microorganisms after 24 hrs; assay type: functional; settings: MTCC 281, 24 h
# Escherichia coli [4] = assay: Antibacterial activity against Escherichia coli MTCC 724 at 100 ug/ml after 24 hrs by disc diffusion method; assay type: functional; settings: MTCC 724, 24 h, read-out: IZ
# Bacillus cereus [5] = assay: Antibacterial activity against Bacillus cereus MTCC 8372 after 24 hrs by microdilution method; assay type: functional; settings: MTCC 8372, 24 h
# Aspergillus flavus [6] = assay: Antifungal activity against Aspergillus flavus MTCC 873 after 48 hrs by microdilution method; assay type: functional; settings: MTCC 873, 48 h
# Aspergillus niger [7] = assay: Antifungal activity against Aspergillus niger MTCC 281 after 48 hrs by microdilution method; assay type: functional; settings: MTCC 281, 48 h
# Staphylococcus aureus [8] = assay: Antibacterial activity against Staphylococcus aureus MTCC 96 at 50 ug/ml after 24 hrs by disc diffusion method; assay type: functional; settings: MTCC 96, 24 h, read-out: IZ
# Klebsiella pneumoniae [9] = assay: Antibacterial activity against Klebsiella pneumoniae MTCC 3384 at 100 ug/ml after 24 hrs by disc diffusion method; assay type: functional; settings: MTCC 3384, 24 h, read-out: IZ
# Klebsiella pneumoniae [10] = assay: Antibacterial activity against Klebsiella pneumoniae MTCC 3384 assessed as concentration required to completely destroy test microorganisms after 24 hrs; assay type: functional; settings: MTCC 3384, 24 h
# Bacillus cereus [11] = assay: Antibacterial activity against Bacillus cereus MTCC 8372 assessed as concentration required to completely destroy test microorganisms after 24 hrs; assay type: functional; settings: MTCC 8372, 24 h
# Bacillus cereus [12] = assay: Antibacterial activity against Bacillus cereus MTCC 8372 at 50 ug/ml after 24 hrs by disc diffusion method; assay type: functional; settings: MTCC 8372, 24 h, read-out: IZ
# Escherichia coli [13] = assay: Antibacterial activity against Escherichia coli MTCC 724 at 50 ug/ml after 24 hrs by disc diffusion method; assay type: functional; settings: MTCC 724, 24 h, read-out: IZ
# Escherichia coli [14] = assay: Antibacterial activity against Escherichia coli MTCC 724 assessed as concentration required to completely destroy test microorganisms after 24 hrs; assay type: functional; settings: MTCC 724, 24 h
# [15] = Inhibition of alpha-glucosidase (unknown origin) using p-nitrophenol glycoside as substrate after 30 mins by colorimetric analysis; design: species or system Homo sapiens
# Staphylococcus aureus [16] = assay: Antibacterial activity against Staphylococcus aureus MTCC 96 at 100 ug/ml after 24 hrs by disc diffusion method; assay type: functional; settings: MTCC 96, 24 h, read-out: IZ
# Aspergillus niger [17] = assay: Antifungal activity against Aspergillus niger MTCC 281 at 100 ug/ml after 24 hrs by disc diffusion method; assay type: functional; settings: MTCC 281, 24 h, read-out: IZ
# Bacillus cereus [18] = assay: Antibacterial activity against Bacillus cereus MTCC 8372 at 100 ug/ml after 24 hrs by disc diffusion method; assay type: functional; settings: MTCC 8372, 24 h, read-out: IZ
# Aspergillus flavus [19] = assay: Antifungal activity against Aspergillus flavus MTCC 873 at 50 ug/ml after 24 hrs by disc diffusion method; assay type: functional; settings: MTCC 873, 24 h, read-out: IZ
# Klebsiella pneumoniae [20] = assay: Antibacterial activity against Klebsiella pneumoniae MTCC 3384 at 50 ug/ml after 24 hrs by disc diffusion method; assay type: functional; settings: MTCC 3384, 24 h, read-out: IZ
# Escherichia coli [21] = assay: Antibacterial activity against Escherichia coli MTCC 724 after 24 hrs by microdilution method; assay type: functional; settings: MTCC 724, 24 h
# Aspergillus flavus [22] = assay: Antifungal activity against Aspergillus flavus MTCC 873 assessed as concentration required to completely destroy test microorganisms after 24 hrs; assay type: functional; settings: MTCC 873, 24 h
# Alpha amylase = target: T1, Alpha amylase (Homo sapiens, UniProt P0DUB6); assay: Inhibition of alpha-amylase (unknown origin) using starch as substrate after 30 mins by spectrophotometer analysis
# T1 sequence (P0DUB6 whole entry): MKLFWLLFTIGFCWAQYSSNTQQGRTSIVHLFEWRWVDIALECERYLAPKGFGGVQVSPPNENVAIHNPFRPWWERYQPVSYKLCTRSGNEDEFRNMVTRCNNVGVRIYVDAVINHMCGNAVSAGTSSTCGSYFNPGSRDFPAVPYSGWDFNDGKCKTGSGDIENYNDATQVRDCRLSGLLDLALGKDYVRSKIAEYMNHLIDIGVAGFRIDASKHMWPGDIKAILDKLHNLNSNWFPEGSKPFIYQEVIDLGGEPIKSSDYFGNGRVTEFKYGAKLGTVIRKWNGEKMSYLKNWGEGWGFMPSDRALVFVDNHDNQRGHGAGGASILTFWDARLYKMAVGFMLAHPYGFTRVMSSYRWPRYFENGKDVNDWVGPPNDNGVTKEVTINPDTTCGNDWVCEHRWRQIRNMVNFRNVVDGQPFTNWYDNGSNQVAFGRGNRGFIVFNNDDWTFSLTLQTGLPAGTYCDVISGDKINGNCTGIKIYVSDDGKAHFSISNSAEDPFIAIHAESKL
# Aspergillus flavus [23] = assay: Antifungal activity against Aspergillus flavus MTCC 873 at 100 ug/ml after 24 hrs by disc diffusion method; assay type: functional; settings: MTCC 873, 24 h, read-out: IZ
# Staphylococcus aureus [24] = assay: Antibacterial activity against Staphylococcus aureus MTCC 96 after 24 hrs by microdilution method; assay type: functional; settings: MTCC 96, 24 h
# Aspergillus niger [25] = assay: Antifungal activity against Aspergillus niger MTCC 281 at 50 ug/ml after 24 hrs by disc diffusion method; assay type: functional; settings: MTCC 281, 24 h, read-out: IZ
Compound,MBC (Staphylococcus aureus [1]) [µg/mL],MIC (Klebsiella pneumoniae [2]) [µg/mL],MFC (Aspergillus niger [3]) [µg/mL],zone of inhibition at 100 µg/mL (Escherichia coli [4]) [mm],MIC (Bacillus cereus [5]) [µg/mL],MIC (Aspergillus flavus [6]) [µg/mL],MIC (Aspergillus niger [7]) [µg/mL],zone of inhibition at 50 µg/mL (Staphylococcus aureus [8]) [mm],zone of inhibition at 100 µg/mL (Klebsiella pneumoniae [9]) [mm],MBC (Klebsiella pneumoniae [10]) [µg/mL],MBC (Bacillus cereus [11]) [µg/mL],zone of inhibition at 50 µg/mL (Bacillus cereus [12]) [mm],zone of inhibition at 50 µg/mL (Escherichia coli [13]) [mm],MBC (Escherichia coli [14]) [µg/mL],IC50 [15] [µg/mL],zone of inhibition at 100 µg/mL (Staphylococcus aureus [16]) [mm],zone of inhibition at 100 µg/mL (Aspergillus niger [17]) [mm],zone of inhibition at 100 µg/mL (Bacillus cereus [18]) [mm],zone of inhibition at 50 µg/mL (Aspergillus flavus [19]) [mm],zone of inhibition at 50 µg/mL (Klebsiella pneumoniae [20]) [mm],further results
CCOC(=O)c1c(-c2ccccc2)nn(-c2ccccc2)c1COc1cc(OC)c(C=O)c(OC)c1,200,20,190,30,40,50,45,8,19,150,200,6,15,160,35,10,11,10,10,10,MIC (Escherichia coli [21]): 25 µg/mL; MFC (Aspergillus flavus [22]): 215 µg/mL; IC50 (Alpha amylase): 40 µg/mL; zone of inhibition at 100 µg/mL (Aspergillus flavus [23]): 12 mm; MIC (Staphylococcus aureus [24]): 40 µg/mL; zone of inhibition at 50 µg/mL (Aspergillus niger [25]): 14 mm
CCOC(=O)c1c(-c2ccccc2)nn(-c2ccccc2)c1COCc1ccccc1,210,45,265,6,50,55,45,2,6,230,255,2,4,210,45,6,8,8,8,3,MIC (Escherichia coli [21]): 45 µg/mL; MFC (Aspergillus flavus [22]): 270 µg/mL; IC50 (Alpha amylase): 45 µg/mL; zone of inhibition at 100 µg/mL (Aspergillus flavus [23]): 10 mm; MIC (Staphylococcus aureus [24]): 40 µg/mL; zone of inhibition at 50 µg/mL (Aspergillus niger [25]): 12 mm
CCOC(=O)c1c(-c2ccccc2)nn(-c2ccccc2)c1Cn1cnc2cc([N+](=O)[O-])ccc21,190,25,280,18,35,55,65,6,11,185,200,5,8,180,30,12,10,10,6,6,MIC (Escherichia coli [21]): 25 µg/mL; MFC (Aspergillus flavus [22]): 290 µg/mL; IC50 (Alpha amylase): 30 µg/mL; zone of inhibition at 100 µg/mL (Aspergillus flavus [23]): 10 mm; MIC (Staphylococcus aureus [24]): 25 µg/mL; zone of inhibition at 50 µg/mL (Aspergillus niger [25]): 5 mm
CCOC(=O)c1c(-c2ccccc2)nn(-c2ccccc2)c1Cn1c(S)nc2ccc(OC(F)F)cc21,120,15,145,33,10,30,25,12,28,130,130,11,20,135,15,21,22,26,18,16,MIC (Escherichia coli [21]): 15 µg/mL; MFC (Aspergillus flavus [22]): 155 µg/mL; IC50 (Alpha amylase): 10 µg/mL; zone of inhibition at 100 µg/mL (Aspergillus flavus [23]): 20 mm; MIC (Staphylococcus aureus [24]): 20 µg/mL; zone of inhibition at 50 µg/mL (Aspergillus niger [25]): 12 mm
